PubChem BioAssay AID1963440 (Molecular Pharmacology Branch, DTP, NCI, 2024)
pIC50: −log10 of the molar value. One block for each molecule: values may come before it.

Test system: NCI-H1417 complex spheroids, growth % test/control
Test: Anticancer human tumor NCI-H1417 cell line growth inhibition [Asc];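 also: spheroids exposed to compounds for 7 days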;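 as to viability, T/C: 100% = DMSO vehicle control wells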
Settings: for pIC50: curve of first compound; for viability, T/C: stronger effect = lower value
Procedure, shortened: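 Concentration series start at each agent's clinical Cmax, or at 10 microM when none is established, and drop in half-log steps; agents are applied alone or together to complex spheroids built with HUVEC and hMSC.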

pIC50 (second compound 0.1 µM): 5.24
pIC50 (second compound 0.316 µM): > 7.50
pIC50 (second compound 1 µM): > 7.50
pIC50 (second compound 3.16 µM): > 7.50
pIC50 (second compound 10 µM): > 7.50
Structure (SMILES): C#Cc1c(F)ccc2cc(O)cc(-c3ncc4c(N5CC6CCC(C5)N6)nc(OCC56CCCN5CC(F)C6)nc4c3F)c12 (stereo not given) + Cc1c(S(C)(=O)=O)c(-c2cc(F)cc(N3CCN(c4ccc(NS(=O)(=O)c5ccc(NC(CCN6CCC(C(=O)OCCCP(=O)(O)O)CC6)CSc6ccccc6)c(S(=O)(=O)C(F)(F)F)c5)cc4)CC3)c2)c(-c2ccc(Cl)cc2)n1C(C)C
viability, T/C (second compound 0.1 µM, first compound 0.0316 µM): 72%
viability, T/C (second compound 0.1 µM, first compound 0.1 µM): 83.9%
viability, T/C (second compound 0.1 µM, first compound 0.316 µM): 71.8%
viability, T/C (second compound 0.1 µM, first compound 1 µM): 75.8%
viability, T/C (second compound 0.1 µM, first compound 3.16 µM): 64.7%
viability, T/C (second compound 0.1 µM, first compound 10 µM): 35.7%
viability, T/C (second compound 0.316 µM, first compound 0.0316 µM): 42.6%
viability, T/C (second compound 0.316 µM, first compound 0.1 µM): 48%
viability, T/C (second compound 0.316 µM, first compound 0.316 µM): 34.8%
viability, T/C (second compound 0.316 µM, first compound 1 µM): 20.9%
viability, T/C (second compound 0.316 µM, first compound 3.16 µM): 12.9%
viability, T/C (second compound 0.316 µM, first compound 10 µM): 5.66%
viability, T/C (second compound 1 µM, first compound 0.0316 µM): 12%
viability, T/C (second compound 1 µM, first compound 0.1 µM): 10.5%
viability, T/C (second compound 1 µM, first compound 0.316 µM): 7.98%
viability, T/C (second compound 1 µM, first compound 1 µM): 5.31%
viability, T/C (second compound 1 µM, first compound 3.16 µM): 3.23%
viability, T/C (second compound 1 µM, first compound 10 µM): 4.53%
viability, T/C (second compound 3.16 µM, first compound 0.0316 µM): 3.15%
viability, T/C (second compound 3.16 µM, first compound 0.1 µM): 2.9%
viability, T/C (second compound 3.16 µM, first compound 0.316 µM): 3.53%
viability, T/C (second compound 3.16 µM, first compound 1 µM): 1.96%
viability, T/C (second compound 3.16 µM, first compound 3.16 µM): 1.85%
viability, T/C (second compound 3.16 µM, first compound 10 µM): 2.61%
viability, T/C (second compound 10 µM, first compound 0.0316 µM): 2.05%
viability, T/C (second compound 10 µM, first compound 0.1 µM): 2.06%
viability, T/C (second compound 10 µM, first compound 0.316 µM): 2.12%
viability, T/C (second compound 10 µM, first compound 1 µM): 1.68%
viability, T/C (second compound 10 µM, first compound 3.16 µM): 1.15%
viability, T/C (second compound 10 µM, first compound 10 µM): 2.22%

pIC50 (second compound 0.1 µM): < 5.52
pIC50 (second compound 0.316 µM): > 8.02
pIC50 (second compound 1 µM): > 8.02
pIC50 (second compound 3.16 µM): > 8.02
pIC50 (second compound 10 µM): > 8.02
Structure (SMILES): Cc1nc(N2CCC3(CC2)COC(C)C3N)c(CO)nc1Sc1ccnc(N)c1Cl (stereo not given) + Cc1c(S(C)(=O)=O)c(-c2cc(F)cc(N3CCN(c4ccc(NS(=O)(=O)c5ccc(NC(CCN6CCC(C(=O)OCCCP(=O)(O)O)CC6)CSc6ccccc6)c(S(=O)(=O)C(F)(F)F)c5)cc4)CC3)c2)c(-c2ccc(Cl)cc2)n1C(C)C
viability, T/C (second compound 0.1 µM, first compound 0.00949 µM): 81.4%
viability, T/C (second compound 0.1 µM, first compound 0.03 µM): 82%
viability, T/C (second compound 0.1 µM, first compound 0.0949 µM): 71.4%
viability, T/C (second compound 0.1 µM, first compound 0.3 µM): 64.8%
viability, T/C (second compound 0.1 µM, first compound 0.949 µM): 64.4%
viability, T/C (second compound 0.1 µM, first compound 3 µM): 52.6%
viability, T/C (second compound 0.316 µM, first compound 0.00949 µM): 46.9%
viability, T/C (second compound 0.316 µM, first compound 0.03 µM): 46.3%
viability, T/C (second compound 0.316 µM, first compound 0.0949 µM): 32.9%
viability, T/C (second compound 0.316 µM, first compound 0.3 µM): 23.9%
viability, T/C (second compound 0.316 µM, first compound 0.949 µM): 13.7%
viability, T/C (second compound 0.316 µM, first compound 3 µM): 12.2%
viability, T/C (second compound 1 µM, first compound 0.00949 µM): 12.4%
viability, T/C (second compound 1 µM, first compound 0.03 µM): 9.91%
viability, T/C (second compound 1 µM, first compound 0.0949 µM): 6.5%
viability, T/C (second compound 1 µM, first compound 0.3 µM): 3.75%
viability, T/C (second compound 1 µM, first compound 0.949 µM): 1.89%
viability, T/C (second compound 1 µM, first compound 3 µM): 0.84%
viability, T/C (second compound 3.16 µM, first compound 0.00949 µM): 2.34%
viability, T/C (second compound 3.16 µM, first compound 0.03 µM): 2.47%
viability, T/C (second compound 3.16 µM, first compound 0.0949 µM): 1.68%
viability, T/C (second compound 3.16 µM, first compound 0.3 µM): 1.09%
viability, T/C (second compound 3.16 µM, first compound 0.949 µM): 0.67%
viability, T/C (second compound 3.16 µM, first compound 3 µM): 0.5%
viability, T/C (second compound 10 µM, first compound 0.00949 µM): 2.47%
viability, T/C (second compound 10 µM, first compound 0.03 µM): 2.41%
viability, T/C (second compound 10 µM, first compound 0.0949 µM): 1.78%
viability, T/C (second compound 10 µM, first compound 0.3 µM): 1.37%
viability, T/C (second compound 10 µM, first compound 0.949 µM): 1.05%
viability, T/C (second compound 10 µM, first compound 3 µM): 1.2%
